# From ChEMBL document CHEMBL1201862, “PubChem BioAssay data set” (2004)
#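 Values below derive from 48-hour exposures of cells grown in 96-well plates, with endpoints linearly interpolated between the two concentrations bracketing the appropriate inhibition level. Abbreviation: GI50, concentration required for 50% inhibition of growth.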 Active and inactive are the calls of the source. Rule as the data show it: active = GI50 up to about 1.1 µM and inactive = higher.
# How the values were obtained:
# Test in all cases: inhibition of tumour cell growth, NCI panel, 48 h
# [1] = system: NCI/ADR-RES
# [2] = system: MOLT-4
# [3] = system: PC-3
# [4] = system: HOP-92
# [5] = system: M14
# [6] = system: MDA-MB-231
# [7] = system: SNB-75
# [8] = system: OVCAR-3
# [9] = system: SK-OV-3
# [10] = system: SW-620
# [11] = system: EKVX
# [12] = system: SK-MEL-2
# [13] = system: OVCAR-4
# [14] = system: Hs-578T
# [15] = system: A549
# [16] = system: SK-MEL-5
# [17] = system: LOX IMVI
# [18] = system: T47D
# [19] = system: NCI-H460
# [20] = system: DU-145
# [21] = system: Malme-3M
# [22] = system: 786-0
# [23] = system: NCI-H522
# [24] = system: SF-295
# [25] = system: SF-268
# [26] = system: HOP-62
# [27] = system: OVCAR-8
# [28] = system: ACHN
# [29] = system: IGROV-1
# [30] = system: SR
# [31] = system: MDA-N
# [32] = system: HCT-116
# [33] = system: HCT-15
# [34] = system: SN12C
# [35] = system: COLO 205
# [36] = system: UACC-62
# [37] = system: UACC-257
# [38] = system: HT-29
# [39] = system: MDA-MB-435
# [40] = system: MCF7
# [41] = system: HCC 2998
# [42] = system: SK-MEL-28
# [43] = system: UO-31
# [44] = system: KM12
# [45] = system: RXF 393
# [46] = system: RPMI-8226
# [47] = system: A498
# [48] = system: CCRF-CEM
# [49] = system: TK-10
# [50] = system: K562
# [51] = system: NCI-H226
# [52] = system: HL-60
# [53] = system: NCI-H23
# [54] = system: OVCAR-5
# [55] = system: SNB-19
# [56] = system: U-251
compound,measurement,setting,value
CC1(C)OC2C(COC(c3ccccc3)(c3ccccc3)c3ccccc3)OC(c3c[nH]c4c(N)ncnc34)C2O1 (centres undefined),GI50,[1],9.48 µM (inactive)
same,GI50,[2],1.89 µM (inactive)
same,GI50,[3],1.86 µM (inactive)
same,GI50,[4],5.62 µM (inactive)
same,GI50,[5],2.76 µM (inactive)
same,GI50,[6],13.1 µM (inactive)
same,GI50,[7],7.48 µM (inactive)
same,GI50,[8],3.13 µM (inactive)
same,GI50,[9],4.86 µM (inactive)
same,GI50,[10],3.25 µM (inactive)
same,GI50,[11],8.61 µM (inactive)
same,GI50,[12],4.89 µM (inactive)
same,GI50,[13],7.78 µM (inactive)
same,GI50,[14],5.73 µM (inactive)
same,GI50,[15],3.18 µM (inactive)
same,GI50,[16],1.58 µM (inactive)
same,GI50,[17],1.6 µM (inactive)
same,GI50,[18],3.92 µM (inactive)
same,GI50,[19],3.33 µM (inactive)
same,GI50,[20],5.6 µM (inactive)
same,GI50,[21],4.92 µM (inactive)
same,GI50,[22],1.87 µM (inactive)
same,GI50,[23],4.53 µM (inactive)
same,GI50,[24],3 µM (inactive)
same,GI50,[25],5.82 µM (inactive)
same,GI50,[26],4.86 µM (inactive)
same,GI50,[27],5.77 µM (inactive)
same,GI50,[28],2.67 µM (inactive)
same,GI50,[29],4.49 µM (inactive)
same,GI50,[30],4.06 µM (inactive)
same,GI50,[31],3.16 µM (inactive)
same,GI50,[32],4.67 µM (inactive)
same,GI50,[33],4.06 µM
same,GI50,[34],3.92 µM (inactive)
same,GI50,[35],10.7 µM (inactive)
same,GI50,[36],1.31 µM (inactive)
same,GI50,[37],4.68 µM (inactive)
same,GI50,[38],2.56 µM (inactive)
CCN1CCC(O)(c2ccc(O)cc2)C(C(=O)c2ccc(O)cc2)C1 (centres undefined),GI50,[39],17.3 µM (inactive)
same,GI50,[1],26.3 µM (inactive)
same,GI50,[2],21.9 µM (inactive)
same,GI50,[40],3.18 µM (inactive)
same,GI50,[41],> 10 µM (inactive)
same,GI50,[42],17 µM (inactive)
same,GI50,[3],> 10 µM (inactive)
same,GI50,[4],19.7 µM (inactive)
same,GI50,[5],19.5 µM (inactive)
same,GI50,[43],21.6 µM (inactive)
same,GI50,[44],22.2 µM (inactive)
same,GI50,[6],16.3 µM (inactive)
same,GI50,[7],11.2 µM (inactive)
same,GI50,[45],16.6 µM (inactive)
same,GI50,[46],3.21 µM (inactive)
same,GI50,[8],18.2 µM (inactive)
same,GI50,[9],> 100 µM (inactive)
same,GI50,[10],2.95 µM (inactive)
same,GI50,[11],28.2 µM (inactive)
same,GI50,[13],27.7 µM (inactive)
same,GI50,[14],13.3 µM (inactive)
same,GI50,[47],> 10 µM (inactive)
same,GI50,[16],10.8 µM (inactive)
same,GI50,[17],12.5 µM (inactive)
same,GI50,[18],8.77 µM (inactive)
same,GI50,[48],11.5 µM (inactive)
same,GI50,[19],> 100 µM (inactive)
same,GI50,[20],27.6 µM (inactive)
same,GI50,[21],20.5 µM (inactive)
same,GI50,[24],> 100 µM (inactive)
same,GI50,[25],39.2 µM (inactive)
same,GI50,[49],17.3 µM (inactive)
same,GI50,[26],> 100 µM (inactive)
same,GI50,[50],12 µM (inactive)
same,GI50,[51],29.3 µM (inactive)
same,GI50,[52],31.7 µM (inactive)
same,GI50,[53],20.3 µM (inactive)
same,GI50,[27],40.6 µM (inactive)
same,GI50,[28],19.8 µM (inactive)
same,GI50,[29],21.6 µM (inactive)
same,GI50,[30],16.5 µM (inactive)
same,GI50,[54],21.1 µM (inactive)
same,GI50,[32],20.3 µM (inactive)
same,GI50,[33],17.5 µM
same,GI50,[34],22.3 µM (inactive)
same,GI50,[35],4.45 µM (inactive)
same,GI50,[55],> 100 µM (inactive)
same,GI50,[36],16.4 µM (inactive)
same,GI50,[37],13.7 µM (inactive)
same,GI50,[56],> 100 µM (inactive)
same,GI50,[38],25.8 µM (inactive)
